# Reference: ChEMBL document CHEMBL5244280, “Evodiamine Lowers Blood Lipids by Up-Regulating the PPARγ/ABCG1 Pathway in High-Fat-Diet-Fed Mice” (J Nat Prod, 2021)
# The source made the active and inactive calls. The rule behind the calls is not given here.
# Legend:
# [1] = Toxicity in high fat diet fed hyperlipidemic ICR mouse model assessed as ratio of liver weight to body weight at 10 mg/kg, ig administered daily via gavage for 8 weeks (reference value: 4.23 +/-0.79); assay type: organism-based; conditions: in vivo, po, 1344 h
# [2] = tested on: Mus musculus; assay: Protection against hyperlipidemia in high fat diet-fed hyperlipidemic ICR mouse model assessed as reduction in serum total cholesterol content at 20 mg/kg, ig administered daily via gavage for 8 weeks by spectrophotometric analysis; assay type: functional, organism-based
# [3] = tested on: Mus musculus; assay: Upregulation of ABCA1 mRNA expression in liver of high fat diet fed hyperlipidemic ICR mouse model at 10 mg/kg, ig administered daily via gavage for 8 weeks by qPCR analysis; assay type: functional, organism-based
# [4] = molecular target: T1, Peroxisome proliferator-activated receptor gamma (Homo sapiens) (UniProt P37231); assay: Agonist activity at human PPAR-gamma expressed in HEK293 cells co-transfected with luciferase reporter plasmid assessed as receptor transactivation at 10 uM incubated for 18 hrs by luciferase reporter gene assay relative to control; assay type: cell-based
# T1 sequence (whole entry): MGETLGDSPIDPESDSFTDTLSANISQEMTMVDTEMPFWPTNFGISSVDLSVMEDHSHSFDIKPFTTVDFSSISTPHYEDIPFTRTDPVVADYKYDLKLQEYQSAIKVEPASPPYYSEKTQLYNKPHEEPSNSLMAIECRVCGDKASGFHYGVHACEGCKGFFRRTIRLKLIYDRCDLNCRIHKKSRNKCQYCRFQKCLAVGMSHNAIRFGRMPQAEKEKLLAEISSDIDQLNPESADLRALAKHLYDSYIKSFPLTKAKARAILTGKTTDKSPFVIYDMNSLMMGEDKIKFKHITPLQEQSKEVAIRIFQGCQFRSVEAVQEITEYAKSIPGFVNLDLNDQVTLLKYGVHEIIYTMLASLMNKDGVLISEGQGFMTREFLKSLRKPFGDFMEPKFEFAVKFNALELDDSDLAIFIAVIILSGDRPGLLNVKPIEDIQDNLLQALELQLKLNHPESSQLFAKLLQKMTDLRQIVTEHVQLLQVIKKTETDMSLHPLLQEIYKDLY
# [5] = Toxicity in high fat diet fed hyperlipidemic ICR mouse model assessed as ratio of kidney weight to body weight at 10 mg/kg, ig administered daily via gavage for 8 weeks (reference value: 1.34 +/-0.09); assay type: organism-based; conditions: in vivo, po, 1344 h
# [6] = tested on: Mus musculus; assay: Upregulation of ABCG5 mRNA expression in liver of high fat diet fed hyperlipidemic ICR mouse model at 10 mg/kg, ig administered daily via gavage for 8 weeks by qPCR analysis; assay type: functional, organism-based
# [7] = tested on: Mus musculus; assay: Protection against hyperlipidemia in high fat diet-fed hyperlipidemic ICR mouse model assessed as reduction in hepatic triglyceride content at 10 mg/kg, ig administered daily via gavage for 8 weeks by colorimetric assay; assay type: functional; conditions: po, 1344 h
# [8] = Toxicity in normal diet fed ICR mouse assessed as effect on food intake at 10 mg/kg, ig administered daily via gavage for 8 weeks; assay type: organism-based; conditions: in vivo, po, 1344 h
# [9] = tested on: Mus musculus; assay: Protection against hyperlipidemia in high fat diet-fed hyperlipidemic ICR mouse model assessed as reduction in body weight at 10 mg/kg, ig administered daily via gavage for 8 weeks; assay type: functional; conditions: po, 1344 h
# [10] = tested on: Mus musculus; assay: Protection against hyperlipidemia in high fat diet-fed hyperlipidemic ICR mouse model assessed as serum HDL-C content at 20 mg/kg, ig administered daily via gavage for 8 weeks by spectrophotometric analysis; assay type: functional, organism-based
# [11] = Toxicity in high fat diet fed hyperlipidemic ICR mouse model assessed as ratio of stomach weight to body weight at 10 mg/kg, ig administered daily via gavage for 8 weeks (reference value: 1.41 +/-0.34); assay type: organism-based; conditions: in vivo, po, 1344 h
# [12] = tested on: Mus musculus; assay: Protection against hyperlipidemia in high fat diet-fed hyperlipidemic ICR mouse model assessed as reduction in hepatic total cholesterol content at 20 mg/kg, ig administered daily via gavage for 8 weeks by colorimetric assay; assay type: functional, organism-based
# [13] = Toxicity in normal diet fed ICR mouse assessed as ratio of stomach weight to body weight at 10 mg/kg, ig administered daily via gavage for 8 weeks (reference value: 1.24 +/-0.41); assay type: organism-based; conditions: in vivo, po, 1344 h
# [14] = tested on: Mus musculus; assay: Effect on food intake in high fat diet-fed hyperlipidemic ICR mouse model at 10 mg/kg, ig administered daily via gavage for 8 weeks; assay type: functional, organism-based
# [15] = Toxicity in normal diet fed ICR mouse assessed as body weight loss at 10 mg/kg, ig administered daily via gavage for 8 weeks; assay type: organism-based; conditions: in vivo, po, 1344 h
# [16] = Toxicity in normal diet fed ICR mouse assessed as ratio of spleen weight to body weight at 10 mg/kg, ig administered daily via gavage for 8 weeks (reference value: 0.42 +/-0.08); assay type: organism-based; conditions: in vivo, po, 1344 h
# [17] = tested on: Mus musculus; assay: Upregulation of ABCG5 protein expression in liver of high fat diet fed hyperlipidemic ICR mouse model at 10 mg/kg, ig administered daily via gavage for 8 weeks by western blotting analysis; assay type: functional, organism-based
# [18] = tested on: Mus musculus; assay: Upregulation of NPC1 mRNA expression in liver of high fat diet fed hyperlipidemic ICR mouse model at 10 mg/kg, ig administered daily via gavage for 8 weeks by qPCR analysis; assay type: functional, organism-based
# [19] = tested on: Mus musculus; assay: Upregulation of ABCG1 mRNA expression in liver of high fat diet fed hyperlipidemic ICR mouse model at 10 mg/kg, ig administered daily via gavage for 8 weeks by qPCR analysis relative to control; assay type: functional
# [20] = Toxicity in normal diet fed ICR mouse assessed as ratio of liver weight to body weight at 10 mg/kg, ig administered daily via gavage for 8 weeks (reference value: 3.74 +/-0.53); assay type: organism-based; conditions: in vivo, po, 1344 h
# [21] = tested on: Mus musculus; assay: Upregulation of SR-B1 protein expression in liver of high fat diet fed hyperlipidemic ICR mouse model at 10 mg/kg, ig administered daily via gavage for 8 weeks by western blotting analysis; assay type: functional, organism-based
# [22] = tested on: Mus musculus; assay: Protection against hyperlipidemia in high fat diet-fed hyperlipidemic ICR mouse model assessed as reduction in vacuolar degeneration of hepatocytes at 10 mg/kg, ig administered daily via gavage for 8 weeks by Hematoxylin-eosin staining based analysis; assay type: functional, organism-based
# [23] = tested on: HEK293; assay: Agonist activity at human PPAR-beta expressed in HEK293 cells co-transfected with luciferase reporter plasmid assessed as receptor transactivation at 10 uM incubated for 18 hrs by luciferase reporter gene assay relative to control; assay type: cell-based
# [24] = Toxicity in high fat diet fed hyperlipidemic ICR mouse model assessed as ratio of heart weight to body weight at 10 mg/kg, ig administered daily via gavage for 8 weeks (reference value: 0.48 +/-0.03); assay type: organism-based; conditions: in vivo, po, 1344 h
# [25] = Toxicity in normal diet fed ICR mouse assessed as ratio of kidney weight to body weight at 10 mg/kg, ig administered daily via gavage for 8 weeks (reference value: 1.33 +/-0.12); assay type: organism-based; conditions: in vivo, po, 1344 h
# [26] = Toxicity in normal diet fed ICR mouse assessed as ratio of heart weight to body weight at 10 mg/kg, ig administered daily via gavage for 8 weeks (reference value: 0.46 +/-0.03); assay type: organism-based; conditions: in vivo, po, 1344 h
# [27] = tested on: Mus musculus; assay: Upregulation of NPC1L1 protein expression in liver of high fat diet fed hyperlipidemic ICR mouse model at 10 mg/kg, ig administered daily via gavage for 8 weeks by western blotting analysis; assay type: functional, organism-based
# [28] = tested on: Mus musculus; assay: Upregulation of ABCA1 protein expression in liver of high fat diet fed hyperlipidemic ICR mouse model at 10 mg/kg, ig administered daily via gavage for 8 weeks by western blotting analysis; assay type: functional, organism-based
# [29] = Toxicity in high fat diet fed hyperlipidemic ICR mouse model assessed as ratio of spleen weight to body weight at 10 mg/kg, ig administered daily via gavage for 8 weeks (reference value: 0.43 +/-0.11); assay type: organism-based; conditions: in vivo, po, 1344 h
structure (smiles),measurement,setting,value
CN1c2ccccc2C(=O)N2CCc3c([nH]c4ccccc34)C21 (centres undefined),Ratio,[1],3.85
same,Activity,[2],Active
same,Activity,[3],inactive
same,fold change (FC),[4],0.49
same,Ratio,[5],1.29
same,Activity,[6],inactive
same,inhibition in vivo at 10 mg/kg,[7],33.2%
same,Activity,[8],Non-Toxic
same,inhibition in vivo at 10 mg/kg,[9],68.1%
same,Activity,[10],inactive
same,Ratio,[11],1.22
same,Activity,[12],Active
same,Ratio,[13],1.48
same,Activity,[14],inactive
same,Activity,[15],Toxic
same,Ratio,[16],0.41
same,Activity,[17],inactive
same,Activity,[18],inactive
same,fold change (FC),[19],3.6
same,Ratio,[20],3.64
same,Activity,[21],Active
same,Activity,[22],Active
same,fold change (FC),[23],1.53
same,Ratio,[24],0.48
same,Ratio,[25],1.33
same,Ratio,[26],0.49
same,Activity,[27],inactive
same,Activity,[28],inactive
same,Ratio,[29],0.37
